Laboratory results reported in US9856254B2, “Alkoxy substituted imidazoquinolines” (3M INNOVATIVE PROPERTIES COMPANY, priority 2003, dated 2018).
Where a name gives a salt, the structure may show the parent alone.

SMILES	melting point
CCCn1c(COCC)nc2c(N)nc3ccc(OCCCCCCNC(=O)NC(C)C)cc3c21 [Example 408, N-(6-{[4-Amino-2-(ethoxymethyl)-1-propyl-1H-imidazo[4,5-c]quinolin-8-yl]oxy}hexyl)-N′-isopropylurea]	167 to 169 °C
CCc1nc2c(N)nc3cc(OCCNC(=O)OC(C)(C)C)ccc3c2n1CC1CCOCC1 [Example 551, tert-Butyl 2-{[4-amino-2-ethyl-1-(tetrahydro-2H-pyran-4-ylmethyl)-1H-imidazo[4,5-c]quinolin-7-yl]oxy}ethylcarbamate]	200 to 201 °C
CCCc1nc2c(N)nc3cc(OCCCNC(=O)OC(C)(C)C)ccc3c2n1CC(C)C [Example 7, tert-Butyl 3-{[4-amino-1-(2-methylpropyl)-2-propyl-1H-imidazo[4,5-c]quinolin-7-yl]oxy}propylcarbamate]	162.5 to 164 °C
CCOCc1nc2c(N)nc3cc(OCCN4CCOCC4)ccc3c2n1CC(C)(C)O [Example 647, 1-[4-Amino-2-(ethoxymethyl)-7-(2-morpholin-4-ylethoxy)-1H-imidazo[4,5-c]quinolin-1-yl]-2-methylpropan-2-ol]	161 to 163 °C
Cc1nc2c(N)nc3cc(OCCC4CCN(C(=O)C5CCCC5)CC4)ccc3c2n1CC(C)C [Example 27, 7-{2-[1-(Cyclopentylcarbonyl)piperidin-4-yl]ethoxy}-2-methyl-1-(2-methylpropyl)-1H-imidazo[4,5-c]quinolin-4-amine]	235.7 to 238.1 °C
CCCCc1nc2c(N)nc3ccc(OCC(=O)N4CCCCC4)cc3c2n1C [Example 33, 2-Butyl-1-methyl-8-(2-oxo-2-piperidin-1-ylethoxy)-1H-imidazo[4,5-c]quinolin-4-amine]	222.5 to 223.4 °C
CCCn1c(COC)nc2c(N)nc3ccc(OCCCN4CCOCC4)cc3c21 [Example 554, 2-Methoxymethyl-8-(3-morpholin-4-ylpropoxy)-1-propyl-1H-imidazo[4,5-c]quinolin-4-amine]	193 to 196 °C
CCOCc1nc2c(N)nc3cc(OCCCN4CCCC4=O)ccc3c2n1CCCCNC(=O)NC(C)C [Example 399, N-(4-{4-Amino-2-(ethoxymethyl)-7-[3-(2-oxopyrrolidin-1-yl)propoxy]-1H-imidazo[4,5-c]quinolin-1-yl}butyl)-N′-isopropylurea]	98 to 101 °C
CCCn1c(COCC)nc2c(N)nc3ccc(OCCNC(=O)N4CCOCC4)cc3c21 (as salt: hydrochloride) [Example 4, N-(2-{[4-Amino-2-(ethoxymethyl)-1-propyl-1H-imidazo[4,5-c]quinolin-8-yl]oxy}ethyl)morpholine-4-carboxamide]	200 to 202 °C

The next lines start with the values.

melting point	SMILES
126 °C (dec.)	CCCc1nc2c(N)nc3cc(OCC4CCCCO4)ccc3c2n1CC(C)C (centres unmarked) [Example 54, 1-(2-Methylpropyl)-2-propyl-7-(tetrahydropyran-2-ylmethoxy)-1H-imidazo[4,5-c]quinolin-4-amine]
224 to 225.5 °C	CCCn1c(CCOC)nc2c(N)nc3cc(OC4CCN(S(C)(=O)=O)CC4)ccc3c21 [Example 390, 2-(2-Methoxyethyl)-7-{[1-(methylsulfonyl)piperidin-4-yl]oxy}-1-propyl-1H-imidazo[4,5-c]quinolin-4-amine]
165 to 166 °C	CCCn1c(CCOC)nc2c(N)nc3cc(OC4CCN(C(=O)C(C)C)CC4)ccc3c21 [Example 389, 7-[(1-Isobutyrylpiperidin-4-yl)oxy]-2-(2-methoxyethyl)-1-propyl-1H-imidazo[4,5-c]quinolin-4-amine]
214 to 216 °C	CCCn1c(COC)nc2c(N)nc3ccc(OCC(=O)N4CCSCC4)cc3c21 [Example 556, 2-(Methoxymethyl)-8-(2-oxo-2-thiomorpholin-4-ylethoxy)-1-propyl-1H-imidazo[4,5-c]quinolin-4-amine]
176 to 179 °C	CCCn1c(CCOC)nc2c(N)nc3cc(OC4CCN(C(=O)NC(C)C)CC4)ccc3c21 [Example 388, 4-{[4-Amino-2-(2-methoxyethyl)-1-propyl-1H-imidazo[4,5-c]quinolin-7-yl]oxy}-N-isopropylpiperidine-1-carboxamide]
278 to 280 °C	CCOCc1nc2c(N)nc3cc(OC4CCNCC4)ccc3c2n1CC(O)CO (centres unmarked) (as salt: hydrochloride)
201 to 204 °C	CCCn1c(COC)nc2c(N)nc3ccc(OCC(=O)N4CCOCC4)cc3c21 [Example 557, 2-(Methoxymethyl)-8-(2-morpholin-4-yl-2-oxoethoxy)-1-propyl-1H-imidazo[4,5-c]quinolin-4-amine]
192 to 194 °C	CCCn1c(CCOC)nc2c(N)nc3cc(OC4CCOC4)ccc3c21 (centres unmarked) [Example 56, 2-(2-Methoxyethyl)-1-propyl-7-(tetrahydrofuran-3-yloxy)-1H-imidazo[4,5-c]quinolin-4-amine]
